Experimental data as given in ChEMBL document CHEMBL4725361, “MicroRNA-Based Multitarget Approach for Alzheimer's Disease: Discovery of the First-In-Class Dual Inhibitor of Acetylcholinesterase and MicroRNA-15b Biogenesis” (J Med Chem, 2020).
In brackets after ≈: the same amount, converted by molar mass. Activity calls are given as the source filed them. The calls are words filed in the database; no cut-off is given here.

What was measured:
[1] = biological target: Cholinesterase (Homo sapiens) (UniProt P06276); experiment: Inhibition of human blood BChE at 1 to 25 uM using butyrylthiocholine iodide as substrate measured after 20 mins by fluorescence assay; assay type: tissue-based; conditions: dose microM 1-25, time 20.0 min
Sequence of Cholinesterase (Homo sapiens) (P06276 whole entry): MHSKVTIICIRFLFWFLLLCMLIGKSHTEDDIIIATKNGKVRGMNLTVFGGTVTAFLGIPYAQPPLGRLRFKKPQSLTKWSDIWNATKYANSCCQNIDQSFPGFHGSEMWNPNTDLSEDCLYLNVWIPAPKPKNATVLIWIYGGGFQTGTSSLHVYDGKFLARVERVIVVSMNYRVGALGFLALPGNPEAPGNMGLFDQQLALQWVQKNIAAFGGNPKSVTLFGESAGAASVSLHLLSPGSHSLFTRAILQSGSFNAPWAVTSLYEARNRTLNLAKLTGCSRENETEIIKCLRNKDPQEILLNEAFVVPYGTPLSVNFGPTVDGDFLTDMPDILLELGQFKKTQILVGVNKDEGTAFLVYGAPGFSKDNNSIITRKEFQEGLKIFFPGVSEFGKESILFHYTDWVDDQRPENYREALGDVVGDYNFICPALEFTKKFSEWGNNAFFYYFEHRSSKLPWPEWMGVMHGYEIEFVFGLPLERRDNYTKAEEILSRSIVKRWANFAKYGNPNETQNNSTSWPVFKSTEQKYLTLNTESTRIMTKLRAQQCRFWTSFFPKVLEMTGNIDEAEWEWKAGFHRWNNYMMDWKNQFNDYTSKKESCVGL

SH-SY5Y = experiment: Protection against amyloid beta oligomer-induced cytotoxicity in human SH-SY5Y cells expressing miRNA-15b assessed as cell viability at 10 uM after 72 hrs by MTT assay relative to control; assay type: functional; conditions: read-out: Activity
[2] = Half life in Sprague-Dawley rat liver microsomes at 100 uM measured at 20 mins interval by LC-MS/MS analysis; assay type: ADME, Microsome
HEL 299 = experiment: Cytotoxicity against HEL 299 cells measured after 2 days by MTT assay; assay type: cell-based; conditions: Homo sapiens, HEL 299, 48 h
Acetylcholinesterase [3] = biological target: T1, Acetylcholinesterase (Homo sapiens, UniProt P22303); experiment: Inhibition of recombinant human AChE using ATC as substrate by DTNB-reagent based Ellman's method
T1 sequence (P22303 whole entry): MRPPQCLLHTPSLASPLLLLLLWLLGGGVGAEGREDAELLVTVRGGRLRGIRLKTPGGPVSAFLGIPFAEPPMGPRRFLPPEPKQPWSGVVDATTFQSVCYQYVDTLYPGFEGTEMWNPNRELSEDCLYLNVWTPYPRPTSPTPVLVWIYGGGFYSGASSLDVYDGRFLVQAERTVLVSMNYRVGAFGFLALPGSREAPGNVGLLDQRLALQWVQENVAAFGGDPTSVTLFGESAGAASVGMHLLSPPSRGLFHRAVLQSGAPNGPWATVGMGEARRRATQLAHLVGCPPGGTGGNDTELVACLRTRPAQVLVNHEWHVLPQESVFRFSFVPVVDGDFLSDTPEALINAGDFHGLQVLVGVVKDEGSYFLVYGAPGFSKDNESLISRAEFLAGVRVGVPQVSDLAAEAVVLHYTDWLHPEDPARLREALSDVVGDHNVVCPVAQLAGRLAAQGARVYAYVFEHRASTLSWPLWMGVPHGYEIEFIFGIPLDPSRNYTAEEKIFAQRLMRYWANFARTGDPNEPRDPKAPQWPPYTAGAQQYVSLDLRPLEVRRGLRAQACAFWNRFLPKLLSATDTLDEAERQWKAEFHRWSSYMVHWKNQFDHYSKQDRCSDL

[4] = Binding affinity to 5'Dabcyl/3'-fluorescein-labelled pre-miRNA-15b (unknown origin) assessed as inhibition of dicer-mediated pre-miRNA processing […] by FRET assay
[5] = Stability in human serum assessed as parent compound remaining at 100 uM measured after 2 hrs by LC-MS/MS analysis; assay type: ADME, cell-free; conditions: read-out: Stabilty
[6] = Half life in pH 1.6 simulated gastric fluid at 100 uM by LC-MS/MS analysis; assay type: ADME
[7] = Binding affinity to 5'Dabcyl/3'-fluorescein-labelled pre-miRNA146a (unknown origin) assessed as inhibition of recombinant human dicer-mediated pre-miRNA processing at 10 uM preincubated for 30 mins followed by dicer addition and measured after 5 hrs by FRET assay
[8] = Binding affinity to 5'Dabcyl/3'-fluorescein-labelled pre-miRNA212 (unknown origin) assessed as inhibition of recombinant human dicer-mediated pre-miRNA processing at 10 uM preincubated for 30 mins followed by dicer addition and measured after 5 hrs by FRET assay
[9] = Apparent permeability across basolateral to apical side in human Caco2 cells after 120 mins by LC-MS/MS analysis; assay type: ADME, cell-based; conditions: Caco-2
[10] = Half life in pH 6.5 simulated intestinal fluid at 100 uM by LC-MS/MS analysis; assay type: ADME
[11] = Binding affinity to miRNA-15b variant (unknown origin) transfected in human SH-SY5Y cells at 0.5 to 10 uM preincubated with cells for 4 hrs followed by transfection and measured after 4 days by renilla luciferase reporter gene assay; assay type: cell-based; conditions: dose microM 0.5-10, time 4.0 hrs
Homo sapiens = species on record: Homo sapiens; experiment: Inhibition of miRNA-15b biogenesis in human SH-SY5Y cells at 10 uM measured after 96 hrs by Trizol reagent based RT-qPCR analysis relative to control; assay type: cell-based
[12] = Binding affinity to 3'-fluorescein-labelled pre-miRNA-15b (unknown origin) measured after 30 mins by FRET assay
Acetylcholinesterase [13] = biological target: T1, Acetylcholinesterase; experiment: Mixed type inhibition of recombinant human AChE at […] using varying levels of ATC as substrate by Lineweaver-burk plot analysis; conditions: dose microM 0.5-10
[14] = Binding affinity to 5'Dabcyl/3'-fluorescein-labelled pre-miRNA124 (unknown origin) assessed as inhibition of recombinant human dicer-mediated pre-miRNA processing at 10 uM preincubated for 30 mins followed by dicer addition and measured after 5 hrs by FRET assay
[15] = Binding affinity to 5'Dabcyl/3'-fluorescein-labelled pre-miRNA-15b (unknown origin) assessed as inhibition of recombinant human dicer-mediated pre-miRNA processing preincubated for 30 mins followed by dicer addition and measured after 5 hrs by FRET assay
[16] = Apparent permeability across apical to basolateral side in human Caco2 cells after 120 mins by LC-MS/MS analysis; assay type: ADME, cell-based; conditions: Caco-2
Acetylcholinesterase [17] = biological target: T1, Acetylcholinesterase; experiment: Inhibition of recombinant human AChE at 10 uM using ATC as substrate by DTNB-reagent based Ellman's method relative to control
[18] = Solubility of the compound in pH 7.4 PBS buffer at 100 uM measured after 24 hrs by LC-MS/MS analysis; assay type: physicochemical
[19] = Binding affinity to 5'Dabcyl/3'-fluorescein-labelled pre-miRNA-15b (unknown origin) assessed as inhibition of recombinant human dicer-mediated pre-miRNA processing at 10 uM preincubated for 30 mins followed by dicer addition and measured after 5 hrs by FRET assay
[20] = Partition coefficient, log P of the compound in pH 7.4 1-octanol/PBS buffer at 38 mg measured after 1 hr by LC-MS/MS analysis; assay type: physicochemical
[21] = Permeability of the compound in PBS/EtOH solution measured after 16 hrs by PAMPA; assay type: ADME; conditions: read-out: permeability

In the case of `CCN(C)C(=O)Oc1cccc([C@H](C)N(C)C)c1`, the inhibition [1] is reported as “Active”.

`COc1cc2c(cc1OC)C(=O)C(CC1CCN(Cc3ccccc3)CC1)C2` (stereo unspecified) [DONEPEZIL] gave a viability at 10 µM (SH-SY5Y) of 45%.

For `COCCn1cnc2cc(NC(=O)c3ccccc3)cc(C(=O)NCc3cc(F)cc(F)c3)c21`, the half-life at 100 µM [2] was > 5 h, the IC50 (HEL 299) was > 50000 nM and the IC50 (Acetylcholinesterase [3]) was 120 nM. For the same molecule, the IC50 [4] was 530 nM, the remaining at 2 h, 100 µM [5] was 99.1% and the inhibition [1] was “Active”. For the same molecule, the half-life at 100 µM [6] was 6.87 h, the inhibition [7] was “inactive” and the inhibition [8] was “inactive”. For the same molecule, the Papp B→A at 2 h [9] was 36.5 ×10⁻⁶ cm/s, the half-life at 100 µM [10] was > 8.33 h and the Activity [11] was “inactive”. It also gave an inhibition (Homo sapiens) of 55%, a Kd [12] of 810 nM and a viability at 10 µM (SH-SY5Y) of 90%. The inhibition (Acetylcholinesterase [13]) was “Active”, the inhibition [14] was “inactive” and the IC50 [15] was 370 nM. The Papp A→B at 2 h [16] was 16.7 ×10⁻⁶ cm/s, the inhibition (Acetylcholinesterase [17]) was > 90% and the solubility at 24 h, 100 µM [18] was 34 µM (≈ 15.8 µg/mL). The inhibition [19] was “Active”, the logD at 1 h [20] was 2.34 and the Papp at 16 h [21] was 30.8 ×10⁻⁶ cm/s.
